From US7749486B2 (Hoffmann-La Roche Inc., priority 2006, dated 2010)

How the values were obtained:
LOX-GFP-LM cells = test: LOX-GFP-LM experimental metastasis model (lung homogenate fluorescence and survival); type: in vivo, SCID beige mice; conditions: for TGI % At day 26 (tumor growth inhibition relative to Vehicle control group) / RFU (mean ± SD) of lung homogenate / ILS % (increased lifetime-span) / 50% survival days / TGI % At day 25 (tumor growth inhibition relative to Vehicle control group): bid
Protocol: Female SCID beige mice were injected iv via the tail vein with 2 million cells in a volume of 200 μl serum free RPMI1640, randomized into groups, and treated as shown in Tables 6 and 7 with a variety of doses and/or dose schedules. […] The remaining mice from each group were monitored for survival benefit until they were moribund.
Two parameters were assessed for quantitative evaluation of anti-metastatic efficacy: 1) Fluorescence intensity of lung homogenates and 2) Survival.
5 mice per treatment group were removed from the study at Day 25 or 26 for evaluation of lung metastatic tumor burden. Mice were euthanized, and lungs were removed, placed in 3 ml saline, and homogenized. 0.2 ml of lung homogenate was transferred to a 96 well plate, and fluorescence was read using Acumen Explorer. […] Fluorescence was reported in relative fluorescence units (RFU). […] Statistical analysis was determined by Student-test or Mann-Whitney U test, and statistic differences between groups were considered to be significant when the probability value (p) was ≦0.05.
Survival represented overall metastatic status either due to lung metastasis or metastasis to other organs. Moribundity due to labored breathing or hind limb paralysis was monitored and recorded as the surrogate endpoint for survival. For survival assessment, results were plotted as the percentage survival against days after tumor implant. The Increased lifetime-span (% ILS) was calculated as: ILS %=100×[(median survival day of treated group−median survival day of control group)/median survival day of control group]. Median survival or (50% survival time) was determined utilizing Kaplan Meier survival analysis. […] Differences in survival were analyzed by the log-rank test. Statistic differences between groups were considered to be significant when the probability value (p) was ≦0.05.

LOX-GFP cells = test: LOX-GFP peritoneal (ascites) model; type: in vivo, Nu/Nu mice
Protocol: Human melanoma LOX-GFP cells, prepared in accordance with the procedure of Example 3, were maintained in RPMI 1640 medium plus 10% FBS, and 1% Geneticin (G418).
Mice were euthanized, and then a small incision was made along the midline of the abdomen through the skin and peritoneum. A glass Pasteur pipet was utilized to aspirate and remove ascites fluid from the peritoneum, and the ascites was transferred to a 15 ml tube. 3 ml saline was used to rinse the peritoneal cavity, and all of the saline was recovered and transferred into the 15 ml tube containing the ascites fluid. The ascites cell suspension was filtered through a 40 μm nylon filter to obtain a single cell suspension and centrifuged at 1500 rpm for 10 min. The supernatant was removed, and the cell pellet was resuspended in 2 ml of fresh saline. 0.1 ml from each sample was transferred into a 96 well plate to evaluate cell number (reported as relative fluorescence units) utilizing an Acumen Explorer.

[1] = 25, 50, 100 mg/kg po bid, 6 doses (Days 4, 5 & 6), ascites harvest Day 7

COc1ccc(C2=N[C@@H](c3ccc(Cl)cc3)[C@@H](c3ccc(Cl)cc3)N2C(=O)N2CCNC(=O)C2)c(OC(C)C)c1 (stereo in doubt) [Compound D, 4-[(4S,5R)-4,5-Bis-(4-chloro-phenyl)-2-(2-isopropoxy-4-methoxy-phenyl)-4,5-dihydro-imidazole-1-carbonyl]-piperazin-2-one]
TGI % At day 26 (tumor growth inhibition relative to Vehicle control group) (LOX-GFP-LM cells; 200 mg/kg po, Day 3-21): 96.2% | RFU (mean ± SD) of lung homogenate (LOX-GFP-LM cells; 200 mg/kg po, Day 3-21, lungs at day 26): 2359191 ± 526586 RFU | ILS % (increased lifetime-span) (LOX-GFP-LM cells; 200 mg/kg po, Day 3-d21): 29% | 50% survival days (LOX-GFP-LM cells; 200 mg/kg po, Day 3-d21, Vehicle 28 days): 36 days | TGI % At day 26 (tumor growth inhibition relative to Vehicle control group) (LOX-GFP-LM cells; 200 mg/kg po, Day −1-7): 66.0% | RFU (mean ± SD) of lung homogenate (LOX-GFP-LM cells; 200 mg/kg po, Day −1-7, lungs at day 26): 21092887 ± 10460489 RFU | TGI % At day 26 (tumor growth inhibition relative to Vehicle control group) (LOX-GFP-LM cells; 200 mg/kg po, Day −1-21): 78.7% | RFU (mean ± SD) of lung homogenate (LOX-GFP-LM cells; 200 mg/kg po, Day −1-21, lungs at day 26): 13230372 ± 11960417 RFU | ILS % (increased lifetime-span) (LOX-GFP-LM cells; 200 mg/kg po, Day −1-d7): 0% | 50% survival days (LOX-GFP-LM cells; 200 mg/kg po, Day −1-d7, Vehicle 28 days): 28 days | ILS % (increased lifetime-span) (LOX-GFP-LM cells; 200 mg/kg po, Day −1-d21): 10.7% | 50% survival days (LOX-GFP-LM cells; 200 mg/kg po, Day −1-d21, Vehicle 28 days): 31 days | anti-metastatic activity as assessed by fluorescence intensity of lung homogenates (LOX-GFP-LM cells; late intervention (Dosed Day 3 through 23) as compared to Vehicle): superior anti-metastatic activity | LOX-GFP ascites growth (LOX-GFP cells; [1]): inhibited LOX-GFP ascites growth at several doses | dose dependence of LOX-GFP ascites growth inhibition (LOX-GFP cells; [1]): not dose-dependent

Cc1[nH]nc2c1N=C(c1ccccc1Cl)c1cc(N)ccc1N2 [Compound E]
TGI % At day 25 (tumor growth inhibition relative to Vehicle control group) (LOX-GFP-LM cells; 5 mg/kg po, Day 3-23): 82.3% | RFU (mean ± SD) of lung homogenate (LOX-GFP-LM cells; 5 mg/kg po, Day 3-23, lungs at day 25): 8618508 ± 3198528 RFU | ILS % (increased lifetime-span) (LOX-GFP-LM cells; 5 mg/kg po, Day 3-d23): 16.7% | 50% survival days (LOX-GFP-LM cells; 5 mg/kg po, Day 3-d23, Vehicle 24 days): 28 days | TGI % At day 25 (tumor growth inhibition relative to Vehicle control group) (LOX-GFP-LM cells; 5 mg/kg po, Day −1-7): −5.9% | RFU (mean ± SD) of lung homogenate (LOX-GFP-LM cells; 5 mg/kg po, Day −1-7, lungs at day 25): 51670506 ± 29321586 RFU | TGI % At day 25 (tumor growth inhibition relative to Vehicle control group) (LOX-GFP-LM cells; 5 mg/kg po, Day −1-23): 73.9% | RFU (mean ± SD) of lung homogenate (LOX-GFP-LM cells; 5 mg/kg po, Day −1-23, lungs at day 25): 12738540 ± 5426672 RFU | ILS % (increased lifetime-span) (LOX-GFP-LM cells; 5 mg/kg po, Day −1-d7): 4.2% | 50% survival days (LOX-GFP-LM cells; 5 mg/kg po, Day −1-d7, Vehicle 24 days): 25 days | ILS % (increased lifetime-span) (LOX-GFP-LM cells; 5 mg/kg po, Day −1-d23): 16.7% | 50% survival days (LOX-GFP-LM cells; 5 mg/kg po, Day −1-d23, Vehicle 24 days): 28 days | anti-metastatic activity as assessed by fluorescence intensity of lung homogenates (LOX-GFP-LM cells; late intervention (Dosed Day 3 through 23) vs full length intervention (Day −1 through 23)): equivalent anti-metastatic activity

COc1ccc(F)c(F)c1C(=O)c1cnc(NC2CCN(S(C)(=O)=O)CC2)nc1N [Compound A, [4-Amino-2-(1-methanesulfonyl-piperidin-4-ylamino)-pyrimidin-5-yl]-(2,3-difluoro-6-methoxy-phenyl)-methanone]
LOX-GFP ascites cell growth (LOX-GFP cells; Compound A 40 mg/kg po, 2 doses (Days 5 & 6), ascites harvest Day 7): reduced cell growth | LOX-GFP ascites cell growth (LOX-GFP cells; Compound A 40 mg/kg po, 3 doses (Days 4, 5 & 6), ascites harvest Day 7): reduced cell growth maximally | LOX-GFP ascites cell growth (LOX-GFP cells; Compound A 40 mg/kg po, single dose (Day 6), ascites harvest Day 7): did not inhibit cell growth

COc1ccc(C2=NC(c3ccc(Cl)cc3)C(c3ccc(Cl)cc3)N2C(=O)N2CCNC(=O)C2)c(OC(C)C)c1 (stereo not drawn) [Compound B, 4-[4,5-Bis-(4-chloro-phenyl)-2-(2-isopropoxy-4-methoxy-phenyl)-4,5-dihydro-imidazole-1-carbonyl]-piperazin-2-one]
LOX-GFP ascites growth (LOX-GFP cells; 40 mg/kg sc, 6 doses, ascites harvest Day 8): demonstrated inhibitory effects on LOX-GFP ascites growth

CCOc1ccnc2ccc(/C=C3\SC(N[C@@H](CO)c4ccccc4)=NC3=O)cc12 [Compound C, 5-(4-Ethoxy-quinolin-6-ylmeth-(Z)-ylidine)-2-(2-hydroxy-1-(R)-phenyl-ethylamino)-thiazol-4-one]
LOX-GFP ascites growth (LOX-GFP cells; 200 mg/kg po bid, 12 doses, ascites harvest Day 8): demonstrated inhibitory effects on LOX-GFP ascites growth

CC(=O)O[C@H]1C(=O)[C@@]2(C)[C@H]([C@H](OC(=O)c3ccccc3)[C@]3(O)C[C@H](OC(=O)[C@H](O)[C@@H](NC(=O)c4ccccc4)c4ccccc4)C(C)=C1C3(C)C)[C@]1(OC(C)=O)CO[C@@H]1C[C@@H]2O [Taxol, reference compound]
LOX-GFP ascites cell growth (LOX-GFP cells; Taxol 10 mg/kg iv, 2 doses (Days 5 & 6), ascites harvest Day 7): reduced cell growth | LOX-GFP ascites cell growth (LOX-GFP cells; Taxol 10 mg/kg iv, 3 doses (Days 4, 5 & 6), ascites harvest Day 7): reduced cell growth maximally | LOX-GFP ascites cell growth (LOX-GFP cells; Taxol 10 mg/kg iv, single dose (Day 6), ascites harvest Day 7): did not inhibit cell growth
